Like-named read-outs stand apart in the source and are kept apart here.
Legend:
HeLa cell line = tested on: HeLa cell line; design: method as in PMID 32102414; settings: cited from earlier work
[1] = CellTiter-Glo Luminescent Cell Viability Assay on non-tumor CHO cells; assay type: cell-based, Chinese hamster; settings: Chinese hamster, CHO cells, 48 h, 10^−5 M, mean ± SD, n = 9
Protocol: (§1) Three promising conjugates (20, 23, 25) were selected for testing on the non-tumor CHO cell line in the CellTiter-Glo Luminescent Cell Viability Assay (Promega Corporation, Madison, WI, USA) to reveal their selectivity for cancer cells.
(§2) Compounds 20, 23, and 25 were dissolved in DMSO in 10 mM stock solutions and stored frozen until use. CHO cells were cultured in complete Dulbecco’s Modified Eagle’s Medium (DMEM, low glucose (1 g/L)) supplemented with 10% fetal bovine serum, 1% Gibco GlutaMAX-I (100×) solution, 1% Gibco MEM non-essential amino acid solution (100×), and 0.1% penicillin–streptomycin mixture. Cells were grown in T-25 size cell culture flasks under standard cell culture conditions (37 °C, 5% CO2) and passaged at 70–80% confluency. The assay was performed according to the manufacturer’s protocol, as described previously. Briefly, CHO cells were seeded to opaque 96-well culture plates at a density of 5000 cells/100 µL complete DMEM/well. The side rows and columns of the plate were filled with sterile phosphate-buffer saline to avoid an edge effect. Following overnight incubation (37 °C, 5% CO2), the culture medium was aspirated from the cells and replaced with increasing concentrations of drug solutions (10^−5, 10^−6, and 10^−7 M) diluted from the stock solution in sterile complete DMEM (100 µL/well). Untreated cells served as a control, and complete DMEM served as a luminescent background control. Drug-treated cells were incubated for 48 h (37 °C, 5% CO2), and then equilibrated to room temperature in 30 min. At the end of the incubation period, 100 µL of room temperature CellTiter-Glo reagent was added to each well, and the plates were placed on an orbital shaker for 2 min and incubated for additional 10 min at room temperature without shaking. The luminescent signal was measured using an EnSpire AlphaLisa microplate reader (Perkin Elmer, Inc., Waltham, MA, USA). The normalized luminescent values of the treated cells were compared to those of the untreated control. The statistical analysis and calculation of IC50 values were performed in GraphPad Prism 8.0.1 (GraphPad, La Jolla, CA, USA). Estimated IC50 values were calculated by using non-linear regression by fitting a sigmoidal dose–response curve to the data points.

[2] = tested on: non-tumor Chinese hamster ovary (CHO) cells; experiment: as above; assay type: cell-based; settings: for effect on CHO cell viability (in words) / IC50: 48 h; for effect on CHO cell viability (in words): 10^−7 and 10^−6 M; for IC50: read-out: IC50 (estimated)
Protocol: as §1, §2

[3] = CHO cells (non-tumor Chinese hamster ovary cell line)
[4] = Cricetulus griseus, CHO cells, roughly estimated from three concentrations

SMILES	IC50 (HeLa cell line)	viability at 48 h [1, 3]	effect on CHO cell viability (in words) ([2]; CHO cells)	IC50 [2, 4]	EC50 ([2]; Cricetulus griseus, CHO, non-tumor cells, read-out: half-maximal effective concentration (EC50))	viability at 48 h [1]	IC50 ([2]; Cricetulus griseus, CHO)
CCC12C=CCN3CCC4(c5ccc(OC)cc5N(C)C4C(O)(C(=O)OC)C1OC(=O)CCCN1CCN(C)CC1)C32 (centres unmarked) [Compound 3]	9.36 µM	–	–	–	–	–	–
CCC12C=CCN3CCC4(c5cc(NC(=O)CN6CCN(C(c7ccc(F)cc7)c7ccc(F)cc7)CC6)c(OC)cc5N(C)C4C(O)(C(=O)OC)C1OC(C)=O)C32 (centres unmarked) [Compound 20]	–	1.25 ± 0.77%	did not affect CHO cell viability	~2.54 µM	–	–	–
CC[C@]12C=CCN3CC[C@@]4(c5ccc(OC)cc5N(C)[C@H]4[C@@](O)(C(=O)OC)[C@@H]1OC(=O)CCCN1CCN(Cc4ccc(C(F)(F)F)cc4)CC1)[C@@H]32 [Compound 23]	–	52.8 ± 7.25%	did not affect CHO cell viability	~10.8 µM	10.8 µM	–	–
CC[C@]12C=CCN3CC[C@@]4(c5ccc(OC)cc5N(C)[C@H]4[C@@](O)(C(=O)OC)[C@@H]1OC(=O)CCCN1CCN(C(c4ccc(F)cc4)c4ccc(F)cc4)CC1)[C@@H]32 [Compound 25]	–	–	did not affect CHO cell viability	–	–	33.5 ± 19.6%	~6.64 µM
